Laboratory results from US6969583B2, “Method for detecting variant HBV” (Melbourne Health, priority 2000, dated 2005).
Values joined by “and” are separate entries in the source; they are usually repeats but may differ in a detail not shown here. Identical values can stand only once. Like-named read-outs stand apart in the source and are kept apart here.

Assays:
Type in all cases: cell-based, Hepatitis B virus
[1] = test system: precore (G1896A) recombinant HBV-baculovirus; assay: Antiviral testing of the precore mutant (G1896A) HBV baculovirus in HepG2 cells (Example 17)
Protocol: (§1) HepG2 cells were seeded at approximately 20-40% confluency and then were grown for 16-24 hours before infection. On the day of infection, triplicate plates of cells were trypsinized, and viable cell number was determined with a hemocytometer using Trypan blue exclusion. Average cell counts were calculated and used to determine the volume of high-titer viral stock necessary to infect cells at the indicated moi. HepG2 cells were washed one time with serum-free MEM to remove traces of serum. Baculovirus was diluted into MEM without serum to achieve the appropriate moi using volumes of 1.0, 0.5, and 0.25 ml to infect 100-mm, 60 mm, and 35-mm dishes, respectively. Baculovirus was adsorbed to HepG2 cells for one hour at 37° C. with gentle rocking every 15 minutes to ensure that the inoculum was evenly distributed. The inoculum was then aspirated and HepG2 cells were washed two times with phosphate-buffered saline and refed MEM-FBS with or without various concentrations of agents.
(§2) HBV core particles were isolated from the cytoplasmic fraction of HepG2 cells lysed in 0.5% w/v NP-40. Cytoplasmic extracts were adjusted to 10 mmol/l McC12 and unprotected DNA was removed by an incubation to […] for 1.5 hours at 37° C. Following sequential phenol and chloroform extractions, nucleic acids were recovered by ethanol precipitation. Nucleic acids were resuspended in 50 μl/l TE (10 mmol/l Tris, 1 mmol/l ethylenedianinetetraacetic acid), normalized by OD260, and digested with 100 μg/ml RNase (Boehringer Mannheim, Indianapolis, Ind.) for one hour at 37° C. before analysis by electrophoresis and Southern blotting. A BioRad GS-670 imaging densitometer and the Molecular Analyst software (BioRad, Hecules Calif.) was used to analyze suitable exposures of Southern blots. Densitometry data was fitted to logistic dose response curves using the TableCurve2D software package from Jandel Scientific. Logistic dose response equations were used to calculate IC50 and IC90 values and co-efficients of variation.
(§3) Conditioned medium was collected from HepG2 cells and subjected to centrifugation at 6,000 g for five minutes to remove cellular debris. HBV particles were precipitated with 10% w/v PEG 8000 and were concentrated by centrifugation at 12,000 ×g. Viral pellets were resuspended us 1 ml of MEM-FBS and divided into two aliquots. One set of aliquots was treated with 750 μg/ml Pronase for one hour and then with […] DNase 1 for one hour. Both sets of aliquots were then digested with Proteinase K, and extracted with phenol and chloroform. DNA was precipitated with 0.1 volume of 3 mol/l sodium acetate and 1 volume of isopropanol. Ten micrograms of transfer RNA was added as a carrier during precipitation. Pellets were resuspended in 25 μl of TE and digested with 0.5 mg/ml RNase for one hour. DNA was then analyzed by electrophoresis and Southern blotting.
(§4) 3TC and PCV were a gift from Klaus Esser, SmithKline Beecham, Collegeville, Pa. PMEA was obtained from Gilead (Foster City, Calif.). 3TC was resuspended in sterile water, aliquoted, and frozen at −20° C. to avoid repeated freezing and thawing of the drug. PMEA was resuspended in sterile water after the pH was adjusted to 7.0 with NaOH. PCV was resuspended in dimethyl sulphoxide. Medium containing 3TC was prepared daily as needed using fresh aliquots of 3TC. In experiments in which 3TC treatment was initiated after viral infection, HepG2 cells were exposed to the indicated concentration of 3TC immediately after infection with HBV baculovirus. In experiments utilizing pretreatment with 3TC, cells were fed medium containing 3TC 16 hours prior to HBV baculovirus infection, HBV baculovirus infection was also carried out in medium containing 3TC, and cells were refed fresh medium containing 3TC immediately after completion of the infection and washing procedures. Treatment with PMEA and PCV were conducted in a similar manner.

M550I HBV baculovirus = assay: Antiviral testing with M550I HBV baculovirus in HepG2 cells (Example 15); settings: for inhibition at 1 µM / IC50: Hepatitis B virus, 550 (M550I) HBV; for inhibition at 1 µM: ds HBV DNA band density vs untreated controls, estimated from fitted curve, negative = stimulation; for IC50: ds HBV DNA bands
Protocol: as §1, §2, §4

[2] = test system: L526M/M550V HBV baculovirus; assay: Antiviral testing with L526M/M550V HBV baculovirus in HepG2 cells (Example 15); settings: for inhibition at 1 µM / IC50: Hepatitis B virus, dual (L526M/M550V) HBV; for inhibition at 1 µM: HepG2, ds HBV DNA band density vs untreated controls, estimated from fitted curve, negative = stimulation; for IC50: ds HBV DNA bands, HepG2 cells
Protocol: as §1, §2, §4

L526M HBV baculovirus = assay: Antiviral testing with L526M HBV baculovirus in HepG2 cells (Example 15); settings: for inhibition at 1 µM / IC50: Hepatitis B virus
Protocol: as §1, §2, §4

[3] = test system: wild-type (WT) recombinant HBV-baculovirus; assay: Antiviral testing, wild-type (1.3x genomic length) recombinant HBV-baculovirus in HepG2 cells (Example 17)
Protocol: as §1, §2, §3, §4

[4] = test system: wild-type HBV baculovirus; assay: Antiviral testing with wild-type HBV baculovirus in HepG2 cells (Example 15, Southern blot densitometry); settings: for inhibition at 1 µM / IC50: Hepatitis B virus, wt HBV; for inhibition at 1 µM: HepG2, ds HBV DNA band density vs untreated controls, estimated from fitted curve, negative = stimulation of replication; for IC50: ds HBV DNA bands, HepG2 cells
Protocol: as §1, §2, §4
The dose effect of 3TC and PMEA, on wild-type HBV is shown graphically in FIG. 6 (A, B,) and a Southern Blot of intracellular HBV replicative intermediates and extracellular virus produced by HepG2 cells transduced with wild-type HBV-baculovirus in the presence of increasing concentrations of PCV is shown in FIG. 6C and the IC50 for each antiviral agent is shown in Table 2.

[5] = test system: L526M/M550V recombinant HBV-baculovirus; assay: Antiviral testing, L526M/M550V recombinant HBV-baculovirus in HepG2 cells (Example 17); settings: intracellular single-stranded HBV DNA, NDR = no dose response
Protocol: as §1
(§5) HBV core particles were isolated from the cytoplasmic fraction of HepG2 cells lysed in 0.5% w/v NP-40. […]
(§6) Conditioned medium was collected from HepG2 cells and subjected to centrifugation at 6,000 g for five minutes to remove cellular debris. […] DNA was then analyzed by electrophoresis and Southern blotting. […]

[6] = test system: M550I recombinant HBV-baculovirus; assay: Antiviral testing, M550I recombinant HBV-baculovirus in HepG2 cells (Example 17); settings: intracellular single-stranded HBV DNA, NDR = no dose response
Protocol: as §1, §5, §6

[7] = test system: any HBV/baculovirus variant encoding the mutations at M550I or L526M/M550V; assay: Southern blots of HBV DNA from HepG2 cells transduced with lamivudine-resistant recombinant HBV-baculovirus variants (Example 17); settings: intracellular and extracellular HBV DNA, no dose response could be plotted
Protocol: as §1, §5, §6

[8] = test system: Precore/L526M/M550V recombinant HBV-baculovirus; assay: Antiviral testing, Precore/L526M/M550V recombinant HBV-baculovirus in HepG2 cells (Example 17); settings: NDR = no dose response
Protocol: as §1, §2
as §3, with “Pellets were resuspended in 25 μl of TE and digested with 0.5 mg/ml RNase for one hour.” left out, “blotting. […]” for “blotting.”

[9] = test system: Precore/M550I recombinant HBV-baculovirus; assay: Antiviral testing, Precore/M550I recombinant HBV-baculovirus in HepG2 cells (Example 17); settings: NDR = no dose response
Protocol: as §1, §2
as §3, with “Pellets were resuspended in 25 μl of TE and digested with 0.5 mg/ml RNase for one hour.” left out, “blotting. […]” for “blotting.”

[10] = extracellular relaxed circular HBV DNA
[11] = intracellular single-stranded HBV DNA

`Nc1ccn([C@@H]2CS[C@H](CO)O2)c(=O)n1` [Lamivudine, (−)-b-L-2′,3′-dideoxy-3′-thiacytidine] was tested, and the IC50 ([1]; Hepatitis B virus, HepG2, Precore (G1896A), extracellular relaxed circular HBV DNA, individual experiments behind the average, read-out: IC50, single experiments, EC RC) was 0.012 µM, the IC50 ([1]; Hepatitis B virus, HepG2, read-out: IC50 (μM), EC RC, Precore (G1896A), extracellular relaxed circular HBV DNA, averages where footnoted) was 0.011 µM and the IC50 ([1]; Hepatitis B virus, HepG2, read-out: IC50 (μM), IC SS, Precore (G1896A), intracellular single-stranded HBV DNA, averages where footnoted) was 0.0207 µM. For the same compound, the IC50 ([1]; Precore (G1896A), extracellular relaxed circular HBV DNA, individual experiments behind the average, read-out: IC50, single experiments, EC RC) was 0.01 µM, the IC50 ([1]; Precore (G1896A), intracellular single-stranded HBV DNA, individual experiments behind the average, read-out: IC50, single experiments, IC SS) was 14 nM (2×) and 32 nM and the inhibition at 1 µM (M550I HBV baculovirus; HepG2) was 26.7%. For the same compound, the IC50 (M550I HBV baculovirus; HepG2 cells, read-out: IC50) was 3.8 µM, the “Resistance Factor” value (M550I HBV baculovirus) was 422 and the inhibition at 1 µM [2] was -15%. For the same compound, the IC50 [2] was 86.2 µM, the “Resistance Factor” value [2] was 9578 and the inhibition at 1 µM (L526M HBV baculovirus; HepG2, 526 (L526M) HBV, ds HBV DNA band density vs untreated controls, estimated from fitted curve, negative = stimulation, read-out: Inhibition at 1 μM) was 85.8%. The IC50 (L526M HBV baculovirus; 526 (L526M) HBV, ds HBV DNA bands, HepG2 cells, read-out: IC50) was 0.03 µM, the “shift in the IC50 compared to the wild-type” value (L526M HBV baculovirus; L526M vs wild-type, FIG. 7A) was greater than 0.5 log and the “Resistance Factor” value (L526M HBV baculovirus; {}) was 3. For the same compound, the IC50 ([3]; Hepatitis B virus, HepG2, WT, intracellular single-stranded HBV DNA, individual experiments behind the average, read-out: IC50, single experiments, IC SS) was 0.067 µM, the IC50 ([3]; Hepatitis B virus, HepG2, read-out: IC50 (μM), EC RC, WT, extracellular relaxed circular HBV DNA, averages where footnoted) was 0.018 µM and the IC50 ([3]; Hepatitis B virus, HepG2, read-out: IC50 (μM), IC SS, WT, intracellular single-stranded HBV DNA, averages where footnoted) was 0.0697 µM. The IC50 ([3]; WT, extracellular relaxed circular HBV DNA, individual experiments behind the average, read-out: IC50, single experiments, EC RC) was 0.022 µM and 0.0293 µM and 0.0095 µM, the IC50 ([3]; WT, intracellular single-stranded HBV DNA, individual experiments behind the average, read-out: IC50, single experiments, IC SS) was 0.085 µM and 0.0572 µM and the inhibition at 1 µM [4] was 99.6%. The IC50 [4] was 0.009 µM and the “Resistance Factor” value [4] was 1.
In the case of `Nc1nc2c(ncn2CCC(CO)CO)c(=O)[nH]1` [Penciclovir, 9-[4-hydroxy-3-(hydroxymethyl)but-1-yl]guanine], the IC50 ([1]; Hepatitis B virus, HepG2, Precore (G1896A), extracellular relaxed circular HBV DNA, averages where footnoted, read-out: IC50 (μM), EC RC) is reported as 6 µM, the IC50 ([1]; Hepatitis B virus, HepG2, Precore (G1896A), intracellular single-stranded HBV DNA, averages where footnoted, read-out: IC50 (μM), IC SS) is reported as 85 µM and the “sensitivity of G1896A HBV compared with wild type HBV” value ([1]; result in words) is reported as “may be more sensitive”. The inhibition at 1 µM (M550I HBV baculovirus; HepG2) was -24%, the IC50 (M550I HBV baculovirus; HepG2, extrapolated value, read-out: IC50 (μM), extrapolated value) was 1220 µM and the “Resistance Factor” value (M550I HBV baculovirus) was 106. For the same compound, the “IC50 (μM), IC SS” value [5] was “NDR”, the “IC50 (μM), IC SS” value [6] was “NDR” and the “change in sensitivity of L526M/M550V” value ([2]; FIG. 8A-8C, result in words) was “no substantial change”. The inhibition at 1 µM [2] was -10%, the IC50 [2] was 370 µM and the “Resistance Factor” value [2] was 32. The “Resistance Factor” value (L526M HBV baculovirus; 526 (L526M) HBV, mutant IC50 divided by wt IC50, nearest integer) was 9, the “change in sensitivity of L526M compared to wild-type” value (L526M HBV baculovirus; FIG. 7A-7C, result in words) was “No significant change” and the IC50 (L526M HBV baculovirus; HepG2) was 103 µM. For the same compound, the inhibition at 1 µM (L526M HBV baculovirus; HepG2, read-out: Inhibition at 1 μM) was -3%, the IC50 ([3]; Hepatitis B virus, HepG2, WT, extracellular relaxed circular HBV DNA, averages where footnoted, read-out: IC50 (μM), EC RC) was 23 µM and the IC50 ([3]; Hepatitis B virus, HepG2, WT, intracellular single-stranded HBV DNA, averages where footnoted, read-out: IC50 (μM), IC SS) was 226 µM. For the same compound, the inhibition at 1 µM [4] was 7%, the IC50 [4] was 11.5 µM and the “effect on wild-type HBV replication” value ([4]; dose effect, FIG. 6, result in words) was “modest effect”. For the same compound, the “Resistance Factor” value [4] was 1, the “resistance conferred by M550I or L526M/M550V changes” value [7] was “high degree of resistance” and the “IC50 (μM), EC RC” value [8, 10] was “NDR”. The “IC50 (μM), IC SS” value [8, 11] was “NDR”, the “IC50 (μM), EC RC” value [9, 10] was “NDR” and the “IC50 (μM), IC SS” value [9, 11] was “NDR”.
